In this assay the target is T1, human TRPM5 ion channel (Homo sapiens, UniProt Q9NZQ8).
T1 sequence (Q9NZQ8 1-1165): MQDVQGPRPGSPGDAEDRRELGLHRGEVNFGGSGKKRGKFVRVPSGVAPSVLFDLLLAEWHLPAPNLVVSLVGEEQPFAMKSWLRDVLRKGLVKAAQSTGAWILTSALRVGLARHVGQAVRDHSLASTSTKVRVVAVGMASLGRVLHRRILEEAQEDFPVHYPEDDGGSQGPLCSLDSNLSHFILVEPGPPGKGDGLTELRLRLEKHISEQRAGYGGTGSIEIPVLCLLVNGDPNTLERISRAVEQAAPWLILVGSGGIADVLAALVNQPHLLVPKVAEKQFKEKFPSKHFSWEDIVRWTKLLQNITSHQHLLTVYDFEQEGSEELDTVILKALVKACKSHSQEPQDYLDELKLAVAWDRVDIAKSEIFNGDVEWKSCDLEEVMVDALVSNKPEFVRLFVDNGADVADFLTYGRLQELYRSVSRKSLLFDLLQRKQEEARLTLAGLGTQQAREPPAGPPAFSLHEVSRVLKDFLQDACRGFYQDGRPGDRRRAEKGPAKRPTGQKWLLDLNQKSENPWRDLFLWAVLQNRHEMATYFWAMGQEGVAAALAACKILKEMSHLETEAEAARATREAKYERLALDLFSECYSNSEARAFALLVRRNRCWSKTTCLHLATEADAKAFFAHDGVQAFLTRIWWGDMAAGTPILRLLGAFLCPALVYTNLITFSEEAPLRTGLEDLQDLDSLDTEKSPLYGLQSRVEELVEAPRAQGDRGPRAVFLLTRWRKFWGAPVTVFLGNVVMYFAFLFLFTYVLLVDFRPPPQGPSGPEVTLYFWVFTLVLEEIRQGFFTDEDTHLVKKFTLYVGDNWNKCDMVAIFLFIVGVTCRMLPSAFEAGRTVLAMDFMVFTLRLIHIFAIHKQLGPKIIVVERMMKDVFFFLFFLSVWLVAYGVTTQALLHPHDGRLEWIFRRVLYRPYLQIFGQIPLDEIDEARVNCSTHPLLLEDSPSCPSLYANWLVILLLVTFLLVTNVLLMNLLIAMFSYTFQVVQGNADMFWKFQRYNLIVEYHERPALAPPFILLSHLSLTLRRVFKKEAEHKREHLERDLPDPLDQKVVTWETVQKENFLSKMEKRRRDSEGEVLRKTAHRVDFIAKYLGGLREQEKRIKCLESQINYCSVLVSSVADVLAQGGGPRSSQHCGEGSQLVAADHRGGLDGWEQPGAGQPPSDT
The assay is described as follows: FLIPR-based assay for membrane potential and calcium mobilization (TRPM5 inhibiting activity). As to conditions: live cells, 30° C., read-out: hTrpM5 IC50. The assay is classed as cell-based. An outline of the steps:
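Live cells expressing human TRPM5, assayed at 30 °C by FLIPR readout of membrane potential and calcium mobilization. Ten serial 2- or 3-fold dilutions from no more than 100 μM. IC50 derived by curve fitting of concentration-effect data.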
A general note: A change in cytosolic calcium serves as a functional read-out for many receptors and channels.

In the case of `Cc1cc(/C=N/NC(=O)C2CC2c2ccccc2)cc2cccnc12` (racemic) [Example 10, trans-N′-((8-Methylquinolin-6-yl)methylene)-2-phenylcyclopropanecarbohydrazide], the half-inhibitory concentration (IC50) (usually the concentration that gives 50% inhibition) amounted to 420 nM.

The record behind these values is patent US20110033393A1, “Hydrazone Compounds and Their Use” (priority 2009, published 2011).
